{
  "source": "patent US20260365684A1",
  "about": "“PHYTOSPHINGOSINE-3,4-CYCLICPHOSPHATE COMPOUND AND PHARMACEUTICAL COMPOSITION COMPRISING THE SAME” (AXCESO BIOPHARMA CO., LTD., priority 2022, published 2026)",
  "key": {"Tau protein": {"test_system": "Tau protein", "assay": "Expression of Tau in brain of AD-induced animal model by fluorescence microscopy", "type": "in vivo", "conditions": "mouse brain, 1 mg/kg i.p. once every 3 days for 2 weeks, FIG. 3", "experimental": "(§1) To determine the therapeutic effect on Alzheimer's Disease (AD), the effects on amyloid beta monomer (monomeric Aβ, mAβ) and Tau protein, which are biomarkers of AD, were analyzed in an AD-induced animal model.\n(§2) APP/PS/Tau transgenic mice were used as an AD-induced animal model. The compound of formula (1a-1) was administered intraperitoneally once every 3 days at a concentration of 1 mg/kg to 12-week-old transgenic mice for 2 weeks, and the expression of mAβ and Tau proteins in the mouse brain was measured after 1 and 4 weeks. After anesthetizing the mouse, the cervical region was incised with a dissecting tool, and then the occipital region was incised to remove both sides of the skull. The brain was washed with phosphate buffered saline (PBS) and fixed with 4% paraformaldehyde (Sigma, St Louis, MO, USA) for 12 hours at 4 °C. These were cut to a thickness of approximately 10 μm using a vibratome, and hippocampus and cortex sections were collected and placed in 24 wells. PBS was added to the wells containing the fixed tissue sections, and fluorescent nanoparticles (QD565, red fluorescence) conjugated with anti-amyloid antibodies and anti-Tau antibodies (Santa Cruz, USA) were added to each 2 μM, and reacted at 4 °C for 12 hours. The expression of mAβ and Tau was confirmed by fluorescence microscopy."}, "[1]": {"test_system": "MYSEC (murine yolk sac endothelial cell) cell lines", "assay": "In vitro permeability of MYSEC cell line (LPS, trans well, HRP)", "type": "cell-based", "conditions": "FIG. 11A", "experimental": "Permeability was measured by an in vitro method using cell culture and in vivo method using Evans blue dye. To increase permeability, LPS was used in the in vitro method and CLP treatment was used in the in vivo method.\nTo measure permeability by an in vitro method, MYSEC (murine yolk sac endothelial cell) cell lines were used. MYSEC cell lines were placed in the top chamber of a trans well at 2.5×10^5 cells/well and treated with 300 ng of lipopolysaccharide (LPS) derived from Gram-negative bacteria in the presence of the compound of formula (1a-1) for 24 hours. The medium in the top chamber was replaced with 300 μl of serum-free medium containing 5 μl of streptoavidin-HRP. After 5 minutes, 20 μl of the medium in the lower chamber was taken and the activity of HRP was measured as absorbance at 450 nm.\nTo determine the mechanism by which the compound of formula (1a-1) improves permeability, the same experiment was performed by knocking down the SIRT1 protein in the MYSEC cell line."}, "α-synuclein": {"test_system": "α-synuclein", "assay": "α-synuclein expression in differentiated SH-SY5Y dopaminergic neurons by western blot", "type": "cell-based, human", "conditions": "FIG. 6", "experimental": "To analyze the effect on the expression of tyrosine hydroxylase (TH) and α-synuclein as neuron-specific proteins, western blot was performed.\nSH-SY5Y cell line was treated with retinoic acid and 12-O-tetradecanoylphorbol-13-acetate (TPA) to induce differentiation into TH-secreting neurons for 6 days.\nDifferentiated dopaminergic neurons were lysed in PRO-PREP (Intronbio), a cell lysis solution containing protease inhibitor cocktail (Gendepot), and electrophoresed in 10% SDS polyacrylamide gels at 20 μg/well. Transfer was performed using PVDF (Merck millipore) as a membrane, and tyrosine hydroxylase antibody, «-synuclein antibody (Cell signaling), and β-actin antibody (Santa Cruz) were used for reaction for more than 2 hours. Protein expression was detected by staining with ECL substrate (Biorad) for development and graphed using the image J program."}, "[2]": {"test_system": "amyloid beta monomer (monomeric Aβ, mAβ)", "assay": "Expression of mAβ in brain of AD-induced animal model by fluorescence microscopy", "type": "in vivo", "conditions": "mouse brain, 1 mg/kg i.p. once every 3 days for 2 weeks, FIG. 3", "experimental": "as §1, §2"}, "[3]": {"test_system": "tyrosine hydroxylase (TH)", "assay": "Differentiation of pluripotent stem cells into dopaminergic neurons: tyrosine hydroxylase expression", "type": "cell-based", "experimental": "Pluripotent stem cells were seeded in Aggre Well plates (stemcell) at 5,000 cells/microwell and cultured for 5 days in E6 medium (GIBCO) to induce embryonic body (EB) formation. For neural rosette formation, EBs were seeded into 35 mm dishes in groups of 30 and cultured for 10 days in N2bF medium. The 35 mm dishes were used after being coated with 15 μg/ml of poly-L-ornithine (sigma) and 1 μg/ml of fibronectin (sigma). The N2Bf medium composition was DMEM/F12 (GIBCO), N2 supplement (stemcell) 1×, 10% NEAA (GIBCO), 55 µM beta-Mercaptoethanol (GIBCO), bFGF (peprotech) 20 ng/ml. For the formation of spherical neural masses (SNMs), rosette masses were sliced and cultured in petri dishes with N2bF medium. SNMs were no larger than 500 UM in size and were sliced and cultured for 3 to 4 passages. After subculture of SNM, the clumps were broken into small pieces using a tungsten mesh (Nilaco) for the neural progenitor cell (NPC) culture step, and then attached to a PLO/FN-coated dish and cultured in N2bF medium. To differentiate NPCs into dopaminergic neurons, the medium was replaced with an ITS-B27 medium after 2 days of NPC culture. The ITS-B27 medium composition was DMEM/F12 (GIBCO), D-(+)-glucose (sigma) 1.5 mg/ml, insulin (wako) 5 μg/ml, transferrin (wako) 50 μg/ml, selenite (sigma) 30 nM, GlutaMAX (GIBCO) 2.5%, and B27 (GIBCO) 1×. After 4 days of NPC culture, 200 ng/ml of Sonic Hedgehog and 100 ng/ml of FGF8 (peprotech) were added to the ITS-B27 medium. After 6 days of NPC culture, 200 ng/ml of Sonic Hedgehog, 20 ng/ml of GDNF, 20 ng/ml of BDNF (peprotech), 200 µM of ascorbic acid, and 500 μM of cAMP (sigma) were added to the ITS-B27 medium and cultured for approximately 5 weeks. The compound of formula (1a-1) was treated starting from the stage 2 days after NPC culture. […]\n(§3) The effect of the compound of formula (1a-1) on differentiation into neurons was evaluated by comparing the expression of tyrosine hydroxylase (TH) and dopamine transporter (DAT) depending on the presence or absence of treatment with the compound of formula (1a-1)."}, "[4]": {"test_system": "dopamine transporter (DAT)", "assay": "Differentiation of pluripotent stem cells into dopaminergic neurons: dopamine transporter", "type": "cell-based", "conditions": "5-week differentiation sample, FIG. 5B", "experimental": "Pluripotent stem cells were seeded in Aggre Well plates (stemcell) at 5,000 cells/microwell and cultured for 5 days in E6 medium (GIBCO) to induce embryonic body (EB) formation. For neural rosette formation, EBs were seeded into 35 mm dishes in groups of 30 and cultured for 10 days in N2bF medium. The 35 mm dishes were used after being coated with 15 μg/ml of poly-L-ornithine (sigma) and 1 μg/ml of fibronectin (sigma). The N2Bf medium composition was DMEM/F12 (GIBCO), N2 supplement (stemcell) 1×, 10% NEAA (GIBCO), 55 µM beta-Mercaptoethanol (GIBCO), bFGF (peprotech) 20 ng/ml. For the formation of spherical neural masses (SNMs), rosette masses were sliced and cultured in petri dishes with N2bF medium. SNMs were no larger than 500 UM in size and were sliced and cultured for 3 to 4 passages. After subculture of SNM, the clumps were broken into small pieces using a tungsten mesh (Nilaco) for the neural progenitor cell (NPC) culture step, and then attached to a PLO/FN-coated dish and cultured in N2bF medium. […]\nas §3"}, "SIRT1": {"test_system": "SIRT1", "assay": "SIRT1 expression in mouse vascular cells", "type": "cell-based"}},
  "data": [
    {"smiles": "CCCCCCCCCCCCCC[C@H]1OP(=O)(O)O[C@H]1[C@@H](N)CO.Cl", "note": "[formula (1a-1), (4S,5R)-4-((S)-1-amino-2-hydroxyethyl)-2-hydroxy-5-tetradecyl-1,3,2-dioxaphosphoran-2-oxide hydrochloride]", "values": [
      {"measurement": "red fluorescence for Tau", "setting": "Tau protein; 1 week and 4 weeks after", "value": "negligible red fluorescence for mAβ and Tau"},
      {"measurement": "expression of Tau protein", "setting": "Tau protein", "value": "significantly reduced"},
      {"measurement": "permeability, SIRT1 knockdown", "setting": "[1]; MYSEC with knockdown of SIRT1 protein, LPS", "value": "does not show the effect"},
      {"measurement": "permeability", "setting": "[1]; MYSEC, 300 ng LPS, 24 hours", "value": "restores the LPS-induced increased permeability to normal"},
      {"measurement": "expression of α-synuclein", "setting": "α-synuclein; differentiated dopaminergic neurons treated with rotenone (RT)", "value": "the expression of α-synuclein increased by rotenone was decreased"},
      {"measurement": "effectiveness relative to resveratrol (control drug), α-synuclein expression", "setting": "α-synuclein; rotenone-treated differentiated dopaminergic neurons", "value": "more effective than resveratrol"},
      {"measurement": "red fluorescence for mAβ", "setting": "[2]; 1 week and 4 weeks after", "value": "negligible red fluorescence for mAβ and Tau"},
      {"measurement": "expression of amyloid", "setting": "[2]", "value": "significantly reduced"},
      {"measurement": "TH expression (western blot)", "setting": "[3]; 5-week differentiation sample, FIG. 5B", "value": "TH expression is increased"},
      {"measurement": "expression of TH (cell fluorescence immunostaining)", "setting": "[3]; FIG. 5A", "value": "the expression of TH increased"},
      {"measurement": "time at which TH expression was elevated", "setting": "[3]; FIG. 5A, TH expression otherwise increases after more than 5 weeks of differentiation", "value": "≤ 3", "unit": "weeks"},
      {"measurement": "DAT glycosylation (western blot)", "setting": "[4]", "value": "DAT glycosylation is increased"},
      {"measurement": "concentration of maximum SIRT1 expression", "setting": "SIRT1", "value": 100, "unit": "ng/mL"}
    ]}
  ]
}
